From PubChem BioAssay AID1259411 (Chemical Carcinogenesis Research Information System (CCRIS), 2018)
Active and inactive are the calls of the source. No rule for the calls is given here.

System: rodent carcinogenicity bioassays, tumor incidence
Assay: CCRIS carcinogenicity studies
Settings: Dose: 0, Dose: 0
Outline: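 Archive of carcinogenicity, mutagenicity, tumor promotion and tumor inhibition results drawn from journals, NCI reports and other sources, expert-reviewed; covers 1985-2011 and is no longer updated.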

## CCc1cc(Cc2cc(CC)cc(C(C)(C)C)c2O)c(O)c(C(C)(C)C)c1
Species: RAT, Strain/Sex: WISTAR/MALE, Route: ORAL, 0.03, 0.1, 0.3% IN DIET FOR DURATION OF STUDY (STUDY DURATION: 18 MO), 0.03, 0.1, 0.3% IN DIET FOR DURATION OF STUDY (STUDY DURATION: 18 MO)
  carcinogen call: inactive; negative

## Cc1ccccc1
Species: MOUSE, Strain/Sex: B6C3F1/FEMALE, Route: INHALATION, 120, 600, 1200 PPM 6.5 HR/D 5 D/WK FOR 103 WK (STUDY DURATION: 104 WK), 120, 600, 1200 PPM 6.5 HR/D 5 D/WK FOR 103 WK (STUDY DURATION: 104 WK)
  carcinogen call: inactive; negative
Species: MOUSE, Strain/Sex: B6C3F1/MALE, Route: INHALATION, 120, 600, 1200 PPM 6.5 HR/D 5 D/WK FOR 103 WK (STUDY DURATION: 104 WK), 120, 600, 1200 PPM 6.5 HR/D 5 D/WK FOR 103 WK (STUDY DURATION: 104 WK)
  carcinogen call: inactive; negative
Species: RAT, Strain/Sex: F344/FEMALE, Route: INHALATION, 600, 1200 PPM 6.5 HR/D 5 D/WK FOR 103 WK (STUDY DURATION: 104 WK), 600, 1200 PPM 6.5 HR/D 5 D/WK FOR 103 WK (STUDY DURATION: 104 WK)
  carcinogen call: inactive; negative
Species: RAT, Strain/Sex: F344/MALE, Route: INHALATION, 600, 1200 PPM 6.5 HR/D 5 D/WK FOR 103 WK (STUDY DURATION: 104 WK), 600, 1200 PPM 6.5 HR/D 5 D/WK FOR 103 WK (STUDY DURATION: 104 WK)
  carcinogen call: inactive; negative
Species: RAT, Strain/Sex: STRAIN-CD/MALE, Route: INTRAGASTRIC, 500 MG/KG IN OLIVE OIL 1/D 4-5 D/WK FOR 104 WK (STUDY DURATION: 104 WK)
  carcinogen call: inactive; negative

## CC(=O)Nc1ccc(C(=O)CCl)cc1
Species: MOUSE, Strain/Sex: B6C3F1/FEMALE, Route: ORAL, 5000, 10000 PPM IN DIET, 5000, 10000 PPM IN DIET
  carcinogen call: inactive; negative
Species: MOUSE, Strain/Sex: B6C3F1/MALE, Route: ORAL, 5000, 10000 PPM IN DIET, 5000, 10000 PPM IN DIET
  carcinogen call: inactive; negative
Species: RAT, Strain/Sex: F344/FEMALE, Route: ORAL, 1000, 2000 PPM IN DIET, 1000, 2000 PPM IN DIET
  carcinogen call: inactive; negative
Species: RAT, Strain/Sex: F344/MALE, Route: ORAL, 1000, 2000 PPM IN DIET, 1000, 2000 PPM IN DIET
  carcinogen call: inactive; negative

## Cn1c(N)nc2c3ccc(=O)[nH]c3ccc21
Species: MOUSE, Strain/Sex: CD-1/FEMALE, Route: INTRAPERITONEAL, ORAL, 5 µL OF A 21.7 MG/ML SOLUTION IN DMSO ON DAYS 1, 3, 5, 7, 10, 13, 17, 21, 24 AND 28 OF LIFE THEN 2/WK TO WK 10 FOLLOW, Tumor Site: Type of Lesion: LIVER: CARCINOMA
  carcinogen call: active; positive
Species: MOUSE, Strain/Sex: CD-1/MALE, Route: INTRAPERITONEAL, ORAL, 5 µL OF A 21.7 MG/ML SOLUTION IN DMSO ON DAYS 1, 3, 5, 7, 10, 13, 17, 21, 24 AND 28 OF LIFE THEN 2/WK TO WK 10 FOLLOW
  carcinogen call: inactive; negative
Species: RAT, Strain/Sex: F344/MALE, Route: INTRARECTAL, 54.8 MG/KG IN 1.7 ML/KG DMSO INFUSED 3/WK FOR 2 MO THEN 2/WK FOR DURATION OF STUDY (STUDY DURATION: 21 MO)
  carcinogen call: inactive; negative

## OCCOCCO
Species: RAT, Strain/Sex: F344/FEMALE, Route: ORAL, 1.25, 2.5% IN DRINKING WATER FOR 108 WK (STUDY DURATION: 108 WK), 1.25, 2.5% IN DRINKING WATER FOR 108 WK (STUDY DURATION: 108 WK)
  carcinogen call: inactive; negative
Species: RAT, Strain/Sex: F344/MALE, Route: ORAL, 1.25, 2.5% IN DRINKING WATER FOR 108 WK (STUDY DURATION: 108 WK), 1.25, 2.5% IN DRINKING WATER FOR 108 WK (STUDY DURATION: 108 WK)
  carcinogen call: inactive; negative

## Nc1ccc(N)c(Cl)c1
Species: MOUSE, Strain/Sex: B6C3F1/FEMALE, Route: ORAL, 0.3, 0.6% OF DIET, 0.3, 0.6% OF DIET
  carcinogen call: inactive; negative
Species: MOUSE, Strain/Sex: B6C3F1/MALE, Route: ORAL, 0.3, 0.6% OF DIET, 0.3, 0.6% OF DIET
  carcinogen call: inactive; negative
Species: RAT, Strain/Sex: F344/FEMALE, Route: ORAL, 0.15, 0.30% OF DIET, 0.15, 0.30% OF DIET
  carcinogen call: inactive; negative
Species: RAT, Strain/Sex: F344/MALE, Route: ORAL, 0.15, 0.30% OF DIET, 0.15, 0.30% OF DIET
  carcinogen call: inactive; negative

## OCc1ccco1
Species: MOUSE, Strain/Sex: B6C3F1/FEMALE, Route: INHALATION, 2, 8, 32 PPM 6 HR/D 5 D/WK FOR 105 WK (STUDY DURATION: 105 WK), 2, 8, 32 PPM 6 HR/D 5 D/WK FOR 105 WK (STUDY DURATION: 105 WK)
  carcinogen call: inactive; negative
Species: MOUSE, Strain/Sex: B6C3F1/MALE, Route: INHALATION, 2, 8, 32 PPM 6 HR/D 5 D/WK FOR 105 WK (STUDY DURATION: 105 WK), 2, 8, 32 PPM 6 HR/D 5 D/WK FOR 105 WK (STUDY DURATION: 105 WK), Tumor Site: Type of Lesion: KIDNEY: RENAL TUBULE ADENOMA, CARCINOMA
  carcinogen call: active; positive
Species: RAT, Strain/Sex: F344/FEMALE, Route: INHALATION, 2, 8, 32 PPM 6 HR/D 5 D/WK FOR 105 WK (STUDY DURATION: 105 WK), 2, 8, 32 PPM 6 HR/D 5 D/WK FOR 105 WK (STUDY DURATION: 105 WK), Tumor Site: Type of Lesion: NOSE: LATERAL WALL, ADENOMA, RESPIRATORY EPITHELIUM ADENOMA, KIDNEY (RENAL TUBULE): ADENOMA, CARCINOMA, ADENOMA OR CARCI
  carcinogen call: equivocal
Species: RAT, Strain/Sex: F344/MALE, Route: INHALATION, 2, 8, 32 PPM 6 HR/D 5 D/WK FOR 105 WK (STUDY DURATION: 105 WK), 2, 8, 32 PPM 6 HR/D 5 D/WK FOR 105 WK (STUDY DURATION: 105 WK), Tumor Site: Type of Lesion: NOSE: ADENOMA, CARCINOMA, OR SQUAMOUS CELL CARCINOMA
  carcinogen call: active; positive

## c1ccc2c3c4c(cccc4cc2c1)CC3
Species: MOUSE, Strain/Sex: BLU:HA/FEMALE, Route: INTRAPERITONEAL, 175 UG/KG/D ON DAYS 1 (1/7 TOTAL DOSE), 8 (2/7 TOTAL DOSE), AND 15 (4/7 TOTAL DOSE) AFTER BIRTH (STUDY DURATION: 9 MO
  carcinogen call: inactive; negative
Species: MOUSE, Strain/Sex: BLU:HA/MALE, Route: INTRAPERITONEAL, 175 UG/KG/D ON DAYS 1 (1/7 TOTAL DOSE), 8 (2/7 TOTAL DOSE), AND 15 (4/7 TOTAL DOSE) AFTER BIRTH (STUDY DURATION: 9 MO
  carcinogen call: inactive; negative
Species: MOUSE, Strain/Sex: CD-1/FEMALE, Route: INTRAPERITONEAL, 175, 437.5, 875 UG/KG/D ON DAYS 1 (1/7 TOTAL DOSE), 8 (2/7 TOTAL DOSE), AND 15 (4/7 TOTAL DOSE) AFTER BIRTH (STUDY DU, 175, 437.5, 875 UG/KG/D ON DAYS 1 (1/7 TOTAL DOSE), 8 (2/7 TOTAL DOSE), AND 15 (4/7 TOTAL DOSE) AFTER BIRTH (STUDY DU
  carcinogen call: inactive; negative
Species: MOUSE, Strain/Sex: CD-1/MALE, Route: INTRAPERITONEAL, 175, 437.5, 875 UG/KG/D ON DAYS 1 (1/7 TOTAL DOSE), 8 (2/7 TOTAL DOSE), AND 15 (4/7 TOTAL DOSE) AFTER BIRTH (STUDY DU, 175, 437.5, 875 UG/KG/D ON DAYS 1 (1/7 TOTAL DOSE), 8 (2/7 TOTAL DOSE), AND 15 (4/7 TOTAL DOSE) AFTER BIRTH (STUDY DU, Tumor Site: Type of Lesion: LUNG: ADENOMA OR ADENOCARCINOMA
  carcinogen call: active; positive

## CN(C)c1ccc(N=NS(=O)(=O)O)cc1
Species: MOUSE, Strain/Sex: B6C3F1/FEMALE, Route: ORAL, 0.05, 0.10% OF DIET, TWA, 0.05, 0.10% OF DIET, TWA
  carcinogen call: inactive; negative
Species: MOUSE, Strain/Sex: B6C3F1/MALE, Route: ORAL, 0.10, 0.19% OF DIET, TWA, 0.10, 0.19% OF DIET, TWA
  carcinogen call: inactive; negative
Species: RAT, Strain/Sex: F344/FEMALE, Route: ORAL, 0.05, 0.10% OF DIET, TWA, 0.05, 0.10% OF DIET, TWA
  carcinogen call: inactive; negative
Species: RAT, Strain/Sex: F344/MALE, Route: ORAL, 0.05, 0.10% OF DIET, TWA, 0.05, 0.10% OF DIET, TWA
  carcinogen call: inactive; negative

## CC(C)=CC1C(C(=O)OC(C#N)c2cccc(Oc3ccccc3)c2)C1(C)C (stereo not drawn)
Species: Mouse, Strain/Sex: B6C3F1/Female (80/group), Route: Oral, 100, 300, 1,000 ppm of 94.6-94.9% pure cyphenothrin for 104 wk, 100, 300, 1,000 ppm of 94.6-94.9% pure cyphenothrin for 104 wk
  carcinogen call: inactive; negative (study details not presented by dpr evaluator)
Species: Mouse, Strain/Sex: B6C3F1/Male (80/group), Route: Oral, 100, 300, 1,000 ppm of 94.6-94.9% pure cyphenothrin for 104 wk, 100, 300, 1,000 ppm of 94.6-94.9% pure cyphenothrin for 104 wk
  carcinogen call: inactive; negative (study details not presented by dpr evaluator)
